From patent US20040241860A1, “Method of breeding glyphosate resistant plants” (Advanta Technology Limited, priority 1998, published 2004)

Experiments:
Type in all cases: in vivo, corn
[1] = system: homozygous susceptible plants (rr); test: Foliar glyphosate spray of known susceptible check plants, plant mortality (Example 1)
Excerpt: (§1) Progeny of a cross between a homozygous resistant plant (RR) and a homozygous susceptible plant (rr) were planted at the Garst Research Centre near Slater, Iowa, and at the Hawaii Research Centre near Kunia, Hi. It was expected that none of the progeny would segregate for resistance to foliar applications of glyphosate. To test this, the progeny growing at the IA test site were sprayed with glyphosate at a rate of 64 oz per acre during the V5 and V6 stages of growth (26 days after planting). At the same time and rate, several plants in a row of known susceptible plants were sprayed. All of the sprayed plots were examined for plant mortality 7 days after spraying. As expected, all of the susceptible check plants were dead and while all of the putative heterozygous resistant plants were alive (Table 1).

[2] = system: heterozygous resistant plants (Rr, Glyphosate-resistance event GA21); test: Foliar glyphosate spray of putative heterozygous resistant plants, plant mortality (Example 1)
Excerpt: as §1
(§2) A second application of 32oz per acre was applied to the heterozyous resistant plants at the V7 to V8 stage of growth (9 days later). These plants comprised the “Sprayed” class in subsequent experiments. In HI, none of the plants were sprayed with glyphosate and these plants comprised the “Unsprayed” class in subsequent experiments. At both locations, crosses were made between the heterozygous resistant plants and homozygous susceptible plants.

[3] = system: progeny of crosses between heterozygous resistant plants and homozygous susceptible plants; test: Evaluation of progeny from Sprayed and Unsprayed classes: counts of resistant and susceptible plants after glyphosate spray (Example 2); details: progeny sprayed 64 oz per acre V3-V4, counted ten days post-application
Excerpt: as §2
Progeny of the crosses from each class were planted at the HI location. All progeny plants from each class were sprayed with glyphosate at a rate of 64 oz per acre during the V3 to V4 stages of growth. Ten days post-application, counts of resistant and susceptible plants were made for each class. The expected segregation, 1:1 resistant to susceptible, was compared to the observed segregation for each class (Table 2).

[4] = progeny of Unsprayed class (parents not sprayed), 182 plants

O=C(O)CNCP(=O)(O)O [glyphosate]
Observed Segregation ([1]; class Homozygous Susceptible, 64 oz per acre at the same time and rate, examined 7 days after spraying): All Susceptible | plant mortality ([1]; susceptible check plants, 64 oz per acre, 7 days after spraying): dead | Observed Segregation ([2]; class Heterozygous Resistant, 64 oz per acre at V5 and V6 stages (26 days after planting), examined 7 days after spraying): All Resistant | plant mortality ([2]; putative heterozygous resistant plants, 64 oz per acre, V5 and V6, 7 days after spraying): alive | Observed Segregation: Resistant plants ([3]; progeny of Sprayed class (parents 64 oz per acre V5-V6 plus 32 oz per acre V7-V8), 504 plants): 504 | Observed Segregation: Resistant plants [3, 4]: 100 | Observed Segregation: Susceptible plants [3, 4]: 82
